In the NIST ThermoML archive (doi:10.1016/j.jct.2018.09.026):

Test: mn = molality of the nth substance listed, in mol/kg
Settings: 100 kPa, Liquid; for speed of sound: Frequency=3 MHz, Single path-length method; for mass density: Vibrating tube method

CNCCC=C1c2ccccc2CCc2ccccc21.Cl + O
Settings	mass density, 288.15 K [kg/m3]	mass density, 293.15 K [kg/m3]	mass density, 298.15 K [kg/m3]	mass density, 303.15 K [kg/m3]	mass density, 308.15 K [kg/m3]	speed of sound, 288.15 K [m/s]	speed of sound, 293.15 K [m/s]	speed of sound, 298.15 K [m/s]	speed of sound, 303.15 K [m/s]	speed of sound, 308.15 K [m/s]
m1 = 0.025	1000.19	999.27	998.086	996.667	995.032	1471.8	1487.4	1501.2	1513.2	1523.6
m1 = 0.05	1001.25	1000.3	999.096	997.655	995.999	1475.9	1491.2	1504.8	1516.7	1526.8
m1 = 0.075	1002.26	1001.3	1000.07	998.612	996.941	1478.3	1493.7	1507.2	1519	1529.1
